Results from patent US20080312298A1, “Methods for Identification of Modulators of Carm1 Methyl Transferase Activity” (priority 2007, published 2008).

Target: T1, CARM1 (Homo sapiens, UniProt Q86X55)
T1 construct: made in house; host or cells: E. coli
T1 sequence (Q86X55 1-608): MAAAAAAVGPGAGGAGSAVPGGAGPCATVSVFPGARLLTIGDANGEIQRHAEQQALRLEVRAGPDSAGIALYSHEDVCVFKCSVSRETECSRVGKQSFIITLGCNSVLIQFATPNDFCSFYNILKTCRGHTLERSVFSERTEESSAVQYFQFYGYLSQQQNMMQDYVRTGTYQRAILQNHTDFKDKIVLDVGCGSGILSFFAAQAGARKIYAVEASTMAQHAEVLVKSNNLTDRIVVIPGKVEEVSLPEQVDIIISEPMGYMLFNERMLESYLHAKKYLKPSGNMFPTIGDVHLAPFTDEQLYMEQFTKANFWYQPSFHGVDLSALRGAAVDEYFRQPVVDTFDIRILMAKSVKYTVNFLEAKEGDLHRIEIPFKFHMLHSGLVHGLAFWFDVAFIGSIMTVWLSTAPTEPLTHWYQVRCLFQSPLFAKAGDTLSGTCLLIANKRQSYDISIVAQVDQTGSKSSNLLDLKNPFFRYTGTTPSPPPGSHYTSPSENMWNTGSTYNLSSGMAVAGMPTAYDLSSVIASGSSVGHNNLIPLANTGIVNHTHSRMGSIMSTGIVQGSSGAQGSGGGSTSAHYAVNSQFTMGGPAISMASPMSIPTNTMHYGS
Experiment: CARM1 biochemical assay (scintillation proximity assay, SPA)
Excerpt: CARM1 biochemical Assay. (e.g. for Determining IC50 Values).
A fusion protein of CARM1 to MBP (Maltose Binding protein), expressed and purified from E. coli, was used to methylate peptides derived from either the N-terminus of histone H3 (acetyl-STGGKAPRKQLATKAARK-biotin) or from PABP1 (acetyl-[…]-biotin). The H3 peptide has two residues R17 and R26 that have been reported to be methylated by CARM1 (Brandon et al., Biochemistry, 2001, 40(19):5747-5756). The PABP1 peptide also contains two arginine residues, R455 and R460, similarly methylated by CARM1 (Lee and Bedford, EMBO Rep. 2002, 3(3):268-73). The methylation reaction was conducted in the presence of tritiated S-Adenosyl-L-Methionine (3H-SAM), 1 μg MBP-CARM1, 250 nM peptide substrate, and assay buffer (50 mM Tris pH 8.0, 0.03% BSA, 3 mM DTT). The reaction was allowed to proceed at room temperature for 75 minutes before being stopped by Stop buffer (25 mM Tris pH 7.4, 100 mM EDTA, 1% Tween 20) and Streptavidin-coated SPA beads (2 mg/ml) (GE Healthcare). The beads were allowed to settle overnight before the signal was counted in a TOPCOUNT. The final SAM concentration in the reaction and the ratio of tritiated to unlabelled SAM was adjusted to give a good signal/noise. […]

CNC[C@H](O)c1cccc(O)c1
mode of inhibition with respect to SAM: SAM competitive | IC50 (at saturating SAM concentrations): low micromolar
